Results as given in patent US20260263473A1 (priority 2023, published 2026).

Assay: Blood levels of the actives after the three-compartment transdermal patch in a COVID patient
Type: in vivo, human
Conditions: for time at which blood levels rose to a peak: transdermal patch (48 mg ivermectin, 300 mg doxycycline, 50 mg zinc chelate; gelling agent and water), adhered to left side of chest for 3 days
Experimental: A patient with diabetes and hypertension had acquired COVID as proven by PCR. […] They were treated with a transdermal patch containing higher dose of active antiviral drugs including 48 mg of ivermectin, 300 mg of doxycycline, and 50 mg of zinc chelate. The transdermal patch had three separate compartments, each compartment containing one of ivermectin, doxycycline and zinc chelate. Each active ingredient was formulated with a gelling agent and water. The patch remained adhered to the left side of the chest for 3 days. Blood levels of each of the ivermectin, doxycycline and zinc chelate rose to a peak at 10 hrs, The patient's cough continued but slowly resolved and they were not breathless. […] The patient oxygen saturation improved within 2 days with oximetry rising to 96%.

[1] = orally treated patients (comparison)
[2] = transdermal patch, adhered to chest for 3 days, one patient

Q: What does the source list for `C[C@H]1c2cccc(O)c2C(=O)C2=C(O)[C@]3(O)C(=O)C(C(N)=O)=C(O)[C@@H](N(C)C)[C@@H]3[C@@H](O)[C@@H]21` [doxycycline]?
A: persistence of blood levels (area under the curve) [1]: 48 h; time at which blood levels rose to a peak (one patient): 10 h; area under the curve compared with single oral medications [2]: greater than that of single oral medications; persistence of blood levels (area under the curve) [2]: 140 h

Q: With ivermectin as the compound, how does the “persistence of blood levels (area under the curve)” value [1] read?
A: Its value is 48 h.

Q: And the “time at which blood levels rose to a peak” value (one patient)?
A: The value was 10 h.

Q: And the “area under the curve compared with single oral medications” value [2]?
A: The value was “greater than that of single oral medications”.

Q: What about the “persistence of blood levels (area under the curve)” value [2] of the same compound?
A: Its value is 140 h.
